Laboratory results: patent publication US20120309670A1, “7-(ALK-1'-ENYL)-2H-BENZO[B][1,4]DIOXEPIN-3(4H)-ONES AND THEIR USE IN FRAGRANCE APPLICATIONS” (Givaudan SA, priority 2010, published 2012)

Assay: Odour Detection Threshold (ODT) / odour threshold
Conditions: for ODT: Odour Detection Threshold, table of compounds of Formula I

Compound CC/C=C/c1ccc2c(c1)OCC(=O)CO2 [Example 1, (1′E)-7-(But-1′-enyl)-2H-benzo[b][1,4]dioxepin-3(4H)-one] has an Odour threshold of 0.00157 ng/L air and an ODT of 0.00157 ng/L.

For CC(C)C/C=C/c1ccc2c(c1)OCC(=O)CO2 [Example 2, (1′E)-7-(4′-Methylpent-1′-enyl)-2H-benzo[b][1,4]dioxepin-3(4H)-one], the Odour threshold was 0.00025 ng/L air and the ODT was 0.00025 ng/L.

CC(C)/C=C/c1ccc2c(c1)OCC(=O)CO2 [Example 3, (1′E)-7-(3′-Methylbut-1′-enyl)-2H-benzo[b][1,4]dioxepin-3(4H)-one] gave an Odour threshold of 0.015 ng/L air and an ODT of 0.015 ng/L.

C/C=C/C=C/c1ccc2c(c1)OCC(=O)CO2 [Example 4, (1′E,3′E)-7-(Penta-1′,3′-dienyl)-2H-benzo[b][1,4]dioxepin-3(4H)-one] gave an Odour threshold of 0.000141 ng/L air and an ODT of 0.000141 ng/L.

With CCC/C=C/c1ccc2c(c1)OCC(=O)CO2 [Example 5, (1′E)-7-(Pent-1′-enyl)-2H-benzo[b][1,4]dioxepin-3(4H)-one] the Odour threshold was 0.00314 ng/L air and the ODT was 0.00314 ng/L.

Work on CC(C)(C)C/C=C/c1ccc2c(c1)OCC(=O)CO2 [Example 6, (1′E)-7-(4′,4′-Dimethylpent-1′-enyl)-2H-benzo[b][1,4]dioxepin-3(4H)-one] yielded an Odour threshold of 0.042 ng/L air and an ODT of 0.042 ng/L.

CC(C)=Cc1ccc2c(c1)OCC(=O)CO2 [Example 7, (1′E)-7-(2′-Methylprop-1′-enyl)-2H-benzo[b][1,4]dioxepin-3(4H)-one] showed an Odour threshold of 0.42 ng/L air and an ODT of 0.42 ng/L.

For CCC(C)/C=C/c1ccc2c(c1)OCC(=O)CO2 (stereo not shown) [Example 8, (1′E)-7-(3′-Methylpent-1′-enyl)-2H-benzo[b][1,4]-dioxepin-3(4H)-one], the Odour threshold was 0.021 ng/L air and the ODT was 0.021 ng/L.
